Tests used:
U87MG cells = test: BrdU incorporation assay in U87MG cells; type: cell-based, human; settings: 24 hours; for effect of TAT peptide on cell proliferation mediated by STI1 (BrdU): TAT peptide 0.17 μM plus STI1 0.17 μM, FIG. 9; for effect of peptide on cell proliferation mediated by STI1 (BrdU): peptide 0.17 μM or 8 μM plus STI1 0.17 μM, FIG. 8; for effect of peptide on STI1-promoted U87MG proliferation (BrdU): FIG. 7B
Protocol: Cells were plated overnight on 24-well plates with glass cover slips, at a density of 1.5×10^4 cells per well, with DMEM with 10% FCS at 37° C. Plates were washed 3 times with PBS and were maintained in DMEM F12 for 48 hours. Cells were then treated for 24 hours with DMEM/10% FCS or DMEM plus mouse recombinant STI1 (170 nM); recombinant STI1 (170 nM) plus mouse peptide STI1230-245(ELGNDAYKKKDFDKAL) (SEQ ID NO: 1) or its human homologue peptide Hop230-245(ELGNDAYKKKDFDTAL) (SEQ ID NO: 2) (170 nM or 8 μM); STI1 (170 nM) plus STI1/Hop61-76 (GCKTVDLKPDWGKGYS) (SEQ ID NO: 3) irrelevant peptide (170 nM or 8 μM); or each one of the peptides alone. Two hours before the end of treatment, cells received a pulse of BrdU (35 μM) pulse and were fixed with 4% paraformaldehyde.
Coverslips were treated with 2N HCl for 30 minutes. The reagent was then removed and borate buffer applied (boric acid 0.1M, sodium hydroxide 0.15M), pH 8.4, for 10 minutes. Then, cells were treated with PBS plus 0.2% Triton X-100 for 15 minutes. The blocking step was made with PBS/0.2% Triton with 20% horse serum, for 1 hour. Primary anti-BrdU biotinylated antibodies (1:100) were applied overnight (diluted in PBS/0.2% Triton with 1% horse serum). Coverslips were washed 3 times with PBS and incubated for one hour with Strepta-Alexa 488 and DAPI reagents (1:1000), washed more 3 times with PBS and assembled to slides.
There were taken at least four microscopic fields of each treatment on WB filter, ranging from 330-385 nm (DAPI), plus their respective BrdU images, on WIB filter, 450-480 nm using DP controller software, Olympus. Picture files were analyzed on ImageJ software, and the percentage of BrdU positive nuclei in respect to total nuclei number (DAPI) was calculated using the Analyze Particles tool.
FIG. 7B: Treatment of U87MG cells with STI1230-245 peptide abrogates cell proliferation mediated by STI1. U87MG human glioblastoma cells were plated at 1.5×10^4 confluence on glass cover slips of 12 mm. After overnight adherence, cells were starved on serum-free media for 48 hours. Cells were subjected to distinct treatments (see picture) for 24 hours, and a BrdU pulse of 32 μM was performed on the last 2 hours of treatment. Immunofluorescence and cell imaging were done in order to permit absolute cell counting. Values represent percentage of BrdU positive cell nuclei from total number of cell nuclei. FCS (fetal calf serum), STI1/Hop (0.17 μM or 8 μM) and/or STI1230-245 (0.17 μM or 8 μM) and/or STI1/Hop61-76 (irrelevant N-terminus STI1/Hop peptide, 0.17 μM or 8 μM). *Statistically significant from control (without treatment), p<0.001. Bars shown as mean±SEM.
FIG. 8: Hop230-245 peptide inhibits the U87MG cell proliferation mediated by STI1. U87MG human glioblastoma cells were plated at 1.5×10^4 confluence on glass cover slips of 12 mm. After overnight adherence, cells were starved on serum-free media for 48 hours. Cells were subjected to distinct treatments (see picture) for 24 hours, and a BrdU pulse of 32 μM was performed on the last 2 hours of treatment. Immunofluorescence and cell imaging were done in order to permit absolute cell counting. Values represent percentage of BrdU positive cell nuclei from total number of cell nuclei. STI1 (0.17 μM) and/or Hop230-245 (0.17 μM or 8 μM) and/or STI1/Hop61-76 (irrelevant STI1/Hop61-76, 0.17 μM or 8 μM). *Statistically significant from control (without treatment), p<0.01. Bars shown as mean±SEM.
FIG. 9: Treatment of U87MG cells with TAT-STI1230-245 and TAT-Hop230-245 peptides inhibits cell proliferation mediated by STI1. U87MG human glioblastoma cells were plated at 1.5×10^4 confluence on glass cover slips of 12 mm. After overnight adherence, cells were starved on serum-free media for 48 hours. Cells were subjected to distinct treatments (see picture) for 24 hours, and a BrdU pulse of 32 μM was performed on the last 2 hours of treatment. Immunofluorescence and cell imaging were done in order to permit absolute cell counting. […]

rats = test: One-trial step-down inhibitory avoidance (IA) long-term memory test; type: in vivo, rat
Excerpt: Rats were trained in a one-trial, step-down IA paradigm, a hippocampal-dependent learning task in which stepping down from a platform present in a given context is associated with a foot shock, resulting in an increase in step-down latency when the animal is brought back to the training chamber for a retention test (Cammarota et al., 2004). The IA apparatus was a 50×25×25 cm Plexiglas box with a 5-cm-high, 8-cm-wide and 25-cm-long platform on the left end of a series of bronze bars that constitutes the floor of the box. During training, each animal was gently placed on the platform facing the left rear corner of the training box. When an animal stepped down and placed all four of its paws on the grid, it received a 2-s, 0.5-mA foot shock and was then immediately withdrawn from the training box. Animals were replaced in the IA box for retention testing 90 min (for short-term memory (STM)), or 24 h later (for long-term memory (LTM)); their latency to step down onto the grid was recorded. The difference between the training and test-session step-down latencies was taken as a measure of retention. Better memory for the training was inferred from longer retention latencies (Bernabeu et al., 1997; Izquierdo et al., 1997). The maximum retention latency allowed was 180 s, at which time the animal was taken out of the IA box if it had not stepped down and given a score of 180 s. Full details of the experimental protocols can be found in Coitinho et al., 2007.
The data obtained in tests of the effect of peptides on rat long-term memory are presented as medians±interquartile range and were analyzed by the Kruskal-Wallis nonparametric test followed by Dunn's post-hoc (n=10 to 13 animals for each treatment group). In all comparisons, p<0.05 was taken as a significant difference.
FIG. 11: STI1230-245 peptide and TAT-STI1230-245 peptides are capable of increasing long-term memory. The latency to step down before treated rats was recorded (Training) and immediately after training animals received a bilateral hippocampal infusion of saline, STI1230-245 peptide, TAT-STI1230-245 or TAT-STI161-76 irrelevant peptide at the concentration of 15 ng/μl in a total volume of 0.5 μl/side. The latency to step down was tested again 24 hours later (LTM test) and measures Long-term memory (LTM). Data are shown as mean±SE of step-down latencies (n=12 rats in each group). *p<0.05 vs control.

A172 cells [1] = test: [3H]-thymidine incorporation proliferation assay in A172 cells; type: cell-based, human; settings: 24 hr; for promotion of proliferation by peptide alone: serum-free media, FIG. 6
A172 cells [2] = test: BrdU incorporation assay in A172 cells; type: cell-based, human; settings: peptide 170 nM plus STI1 170 nM, 18 hours, FIG. 7A
Protocol: Cells were plated overnight on 24-well plates with glass coverslips, at a density of 1×10^4 cells per well, in DMEM high glucose plus 10% FCS at 37° C. Plates were washed 3 times with PBS and were maintained in DMEM without FCS for 30 hours. Cells were then treated for 18 hours with DMEM/10% FCS or DMEM plus mouse recombinant STI1 (170 nM); STI1 (170 nM) plus STI1230-245 peptide (170 nM); or STI1 (170 nM) plus STI161-76 irrelevant peptide (170 nM). Thirty minutes before the end of treatment, cells received a pulse of BrdU (35 μM) and were fixed with 4% paraformaldehyde.
Coverslips were treated with 2N HCl for 30 minutes. The reagent was then removed and borate buffer applied (boric acid 0.1M, sodium hydroxide 0.15M), pH 8.4, for 10 minutes. Then, cells were treated with PBS plus 0.2% Triton X-100 for 15 minutes. The blocking step was made with PBS/0.2% Triton with 20% horse serum, for 1 hour. […]
There were taken at least four microscopic fields of each treatment on WB filter, ranging from 330-385 nm (DAPI), plus their respective BrdU images, on WIB filter, 450-480 nm using DP controller software, Olympus. Picture files were analyzed on ImageJ software, and the percentage of BrdU positive nuclei in respect to total nuclei number (DAPI) was calculated using the Analyze Particles tool. […]

[3] = biological target: cellular prion protein (PrP^C), endogenous, on human glioblastoma cells (A172, U87MG) (human (A172 human glioblastoma cell line)) (UniProt P04156); test: cell-based or functional assay
Erk = test: Western blot of phospho-Erk in A172 cell lysates; type: cell-based, human; settings: inhibitor added 10 minutes prior to STI1

## YGRKKRRQRRRELGNDAYKKKDFDTAL (conjugate of seq id nos 2 and 8) [TAT-Hop230-245]
U87MG cells
  effect of TAT peptide on cell proliferation mediated by STI1 (BrdU): able to block cell proliferation mediated by STI1
rats; rat, in vivo
  effect in memory consolidation: potent effect in memory consolidation

## ELGNDAYKKKDFDTAL (listed as Homo sapiens) [Hop230-245, human homologue of mouse STI1230-245 peptide]
U87MG cells
  effect of peptide on cell proliferation mediated by STI1 (BrdU): able to abrogate the cell proliferation mediated by STI1
rats; rats, FIG. 11
  effect in memory consolidation: potent effect in memory consolidation

## GCKTVDLKPDWGKGYS (listed as Homo sapiens) [STI1/Hop61-76, N-terminus irrelevant STI1/Hop peptide, reference compound]
U87MG cells
  effect of peptide on cell proliferation mediated by STI1 (BrdU): had no effect upon proliferation mediated by STI1
A172 cells [1]
  promotion of proliferation by peptide alone: did not enhance proliferation
A172 cells [2]
  effect of peptide on STI1-induced proliferation (BrdU): no effect

## ELGNDAYKKKDFDKAL (listed as Mus musculus) [STI1230-245]
U87MG cells
  effect of peptide on cell proliferation mediated by STI1 (BrdU): able to abrogate the cell proliferation mediated by STI1
U87MG cells; peptide 170 nM plus STI1 170 nM
  effect of peptide on STI1-promoted U87MG proliferation (BrdU): blocked
U87MG cells; peptide 8 μM plus STI1 170 nM
  effect of peptide on STI1-promoted U87MG proliferation (BrdU): blocked
rats; bilateral hippocampal infusion immediately after training, 15 ng/μl, 0.5 μl/side
  long-term memory (retention latency, LTM test 24 hours after training): greatly enhanced long-term memory
rats; rats, FIG. 11
  effect in memory consolidation: potent effect in memory consolidation
A172 cells [1]
  promotion of proliferation by peptide alone: unable by itself to promote proliferation
A172 cells [2]
  effect of peptide on STI1-induced proliferation (BrdU): inhibited STI1-induced proliferation

## YGRKKRRQRRRELGNDAYKKKDFDKAL (conjugate of seq id nos 1 and 8) [TAT-STI1230-245]
U87MG cells
  effect of TAT peptide on cell proliferation mediated by STI1 (BrdU): able to block cell proliferation mediated by STI1
rats; rat, in vivo
  effect in memory consolidation: potent effect in memory consolidation
  long-term memory (retention latency, LTM test 24 hours after training): greatly enhanced long-term memory

## recombinant mouse stress-inducible phosphoprotein 1 (STI1), wild type (from UniProt Q60864 1-543) (ligand)
[3]
  BrdU incorporation (proliferation) of A172 cells: 1.5 fold
  BrdU incorporation (proliferation) of U87MG cells: 3 fold
  [3H]-thymidine incorporation of A172 cells, concentration of the maximum effect: 170 nM

## N#CC(=C(/N)Sc1ccccc1N)/C(C#N)=C(\N)Sc1ccccc1N [U0126]
A172 cells [1]; U0126 10 μM or LY294002 5 μM added 10 minutes before STI1 170 nM
  effect of inhibitor on STI1-induced proliferation: completely abolished STI1-induced proliferation
Erk
  effect of co-treatment on STI1-induced Erk activation: abolished

Reference: US8802631B2, “Peptides and methods for the treatment of gliomas and other cancers” (Ludwig Institute for Cancer Research Ltd., priority 2007, dated 2014)
